This assay deals with T1, mAChR M4 (Homo sapiens, UniProt P08173).
T1 construct: expressed in transfected cells; host or cells: CHO-K1 cells stably transfected with M4 cDNA and chimeric G-protein Gqi5
T1 sequence (P08173 1-479): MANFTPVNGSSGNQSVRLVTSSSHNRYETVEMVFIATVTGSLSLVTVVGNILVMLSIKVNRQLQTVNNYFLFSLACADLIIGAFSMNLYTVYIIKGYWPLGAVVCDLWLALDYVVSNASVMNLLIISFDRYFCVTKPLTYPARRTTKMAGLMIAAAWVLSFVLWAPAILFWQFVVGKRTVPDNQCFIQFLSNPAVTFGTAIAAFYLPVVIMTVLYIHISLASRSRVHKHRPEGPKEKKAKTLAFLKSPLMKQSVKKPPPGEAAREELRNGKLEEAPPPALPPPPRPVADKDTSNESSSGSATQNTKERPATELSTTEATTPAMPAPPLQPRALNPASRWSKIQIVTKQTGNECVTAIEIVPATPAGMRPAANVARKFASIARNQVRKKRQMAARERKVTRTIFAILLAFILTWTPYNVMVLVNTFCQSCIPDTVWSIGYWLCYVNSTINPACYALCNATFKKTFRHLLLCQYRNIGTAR
Put plainly: mAChR M4 cell-based functional assay (calcium mobilization, potentiation of EC20 acetylcholine response). To be noted: for Emax at 30 µM: % ACh maximum at 30 μM. On the technique in general: A change in cytosolic calcium serves as a functional read-out for many receptors and channels.

Setting [1] is: mAChR M4 cell-based functional assay, >10,000 estimated for low potency compounds without plateau, read-out: EC50.

Like-named read-outs stand apart in the source and are kept apart here. Where only a bound is given, the exact number is not on record here.

The Emax is the size of the effect at its maximum, as opposed to the concentration needed. In general, EC50 refers to the concentration at which the effect is half-maximal. In the case of `COc1ccc(CNC(=O)c2sc3nnc(C)c(C)c3c2N)cc1` [Example B16], the Emax at 30 µM is 99%. Besides, the EC50 under setting [1] is 250 nM.

With `Cc1nnc2sc(C(=O)NCc3ccncn3)c(N)c2c1C` [Example B17], the Emax at 30 µM was found to be 83%. Moreover, under setting [1], the concentration for a half-maximal effect (EC50) was greater than 10000 nM.

With `Nc1c(C(=O)NCc2cccc(F)c2F)sc2nnccc12` [Example B18], the Emax at 30 µM stood at 60%. For the same compound, under setting [1], the EC50 is greater than 10000 nM.

For `Nc1c(C(=O)NCc2ccccc2)sc2nnccc12` [Example B19], the Emax at 30 µM was found to be 53%. Moreover, under setting [1], the EC50 was greater than 10000 nM.

For `CS(=O)(=O)c1ccc(CNC(=O)c2sc3nnccc3c2N)cc1` [Example B20], the Emax at 30 µM was 41%. The EC50 under setting [1] is greater than 10000 nM.

In the case of `Nc1c(C(=O)NCc2cccc(F)c2)sc2nnccc12` [Example B21], the Emax at 30 µM worked out at 59%. For the same compound, the EC50 under setting [1] was greater than 10000 nM.

Take `Nc1c(C(=O)NCc2ccc3c(c2)OCO3)sc2nnccc12` [Example B22]: the Emax at 30 µM was 63%. Further, the EC50 under setting [1] was 2800 nM.

As for `Cc1nnc2sc(C(=O)NCc3ccc(S(C)(=O)=O)cc3)c(N)c2c1C` [Example B23], the Emax at 30 µM was 83%. Besides, under setting [1], the EC50 is 450 nM.

`Cc1nnc2sc(C(=O)NC3COC3)c(N)c2c1C` [Example B24]: the Emax at 30 µM was determined as 80%. Besides, the EC50 under setting [1] is 520 nM.

Take `Cc1nnc2sc(C(=O)NCC(C)(C)O)c(N)c2c1C` [Example B25]: the Emax at 30 µM turned out to be 56%. The concentration for a half-maximal effect (EC50) under setting [1] was greater than 10000 nM.

Consider `CSc1ccc(CNC(=O)c2sc3nnc(C)c(C)c3c2N)cc1` [Example B26], for which the Emax at 30 µM worked out at 76%. Besides, the EC50 (EC50 (nM)) worked out at 11 nM.

On to `Cc1nnc2sc(C(=O)NCc3ccc4c(c3)CCO4)c(N)c2c1C` [Example B27], for which the Emax at 30 µM came to 76%. For the same compound, under setting [1], the EC50 was 42 nM.

`Cc1nnc2sc(C(=O)NCCN3CCOCC3)c(N)c2c1C` [Example B28]: the Emax at 30 µM is 54%. Besides, the EC50 under setting [1] was greater than 10000 nM.

Take `Cc1nnc2sc(C(=O)NCc3ccc4c(c3)OCCO4)c(N)c2c1C` [Example B29]: the Emax at 30 µM was 76%. For the same compound, under setting [1], the EC50 was 30 nM.

In the case of `COc1ccc(C2CC2NC(=O)c2sc3nnc(C)c(C)c3c2N)cc1` (centres unmarked) [Example B30], the Emax at 30 µM came to 76%. Moreover, the EC50 under setting [1] was 14 nM.

Turning to `Cc1nnc2sc(C(=O)NCc3ccc(S(C)(=O)=O)c(F)c3)c(N)c2c1C` [Example B33], the Emax at 30 µM stood at 73%. In addition, under setting [1], the EC50 was 37 nM.

As to `Cc1nnc2sc(C(=O)NCc3ccc([S+](C)[O-])cc3)c(N)c2c1C` (centres unmarked) [Example B34], the Emax at 30 µM worked out at 82%. For the setting “EC50 (nM)”, the EC50 is 140 nM.

On to `Cc1nnc2sc(C(=O)NC3CCOC3)c(N)c2c1C` (centres unmarked) [Example B35], for which the Emax at 30 µM was found to be 77%. Moreover, the EC50 under setting [1] was 840 nM.

On to `Cc1nnc2sc(C(=O)Nc3ccccn3)c(N)c2c1C` [Example B36], for which the Emax at 30 µM was determined as 29%. In addition, the EC50 under setting [1] was 1700 nM.

As to `[2H]C([2H])(NC(=O)c1sc2nnc(C)c(C)c2c1N)c1ccc(OC)cc1` [Example B37], the Emax at 30 µM came to 68%. Also, the EC50 under setting [1] is 32 nM.

With `Cc1nnc2sc(C(=O)Nc3ccncc3)c(N)c2c1C` [Example B38], the Emax at 30 µM was found to be 54%. Moreover, the EC50 under setting [1] is 600 nM.

For `Nc1c(C(=O)NCc2ccncc2)sc2nnc(-c3ccccc3)c(-c3ccccc3)c12` [Example B39], the Emax at 30 µM is 40%. The EC50 under setting [1] was greater than 10000 nM.

In the case of `COc1ccc(CNC(=O)c2sc3nnc(-c4ccccc4)c(-c4ccccc4)c3c2N)cc1` [Example B40], the Emax at 30 µM was 47%. In addition, the EC50 under setting [1] is 2700 nM.

Consider `CS(=O)(=O)c1ccc(CNC(=O)c2sc3nnc(-c4ccccc4)c(-c4ccccc4)c3c2N)cc1` [Example B41], for which the Emax at 30 µM was 48%. Moreover, the EC50 under setting [1] is greater than 10000 nM.

For the compound `Cc1nnc2sc(C(=O)NCc3ccc4c(c3)OC(F)(F)O4)c(N)c2c1C` [Example B42], the Emax at 30 µM came to 76%. The EC50 under setting [1] is 26 nM.

For the compound `Cc1nnc2sc(C(=O)NCc3ccc4nonc4c3)c(N)c2c1C` [Example B43], the Emax at 30 µM was determined as 75%. Moreover, the EC50 under setting [1] is 270 nM.

With `Cc1nnc2sc(C(=O)NCc3cccc(S(C)(=O)=O)c3)c(N)c2c1C` [Example B44], the Emax at 30 µM was determined as 75%. In addition, the EC50 (EC50 (nM)) is 420 nM.

As for `Cc1nnc2sc(C(=O)NCc3cc(F)c(F)cc3F)c(N)c2c1C` [Example B45], the Emax at 30 µM was found to be 71%. Moreover, the EC50 under setting [1] was 45 nM.

On to `Cc1nnc2sc(C(=O)NC3CN(Cc4ccc(F)cc4)C3)c(N)c2c1C` [Example B46], for which the Emax at 30 µM was determined as 38%. The EC50 under setting [1] is greater than 10000 nM.

As to `Cc1nnc2sc(C(=O)NCc3ccc(S(=O)(=O)C(C)(C)C)cc3)c(N)c2c1C` [Example B47], the Emax at 30 µM worked out at 76%. Besides, under setting [1], the EC50 is 41 nM.

As to `Cc1nnc2sc(C(=O)NCc3ccc(S(=O)(=O)C(C)C)cc3)c(N)c2c1C` [Example B48], the Emax at 30 µM was determined as 77%. For the same compound, for the setting “EC50 (nM)”, the EC50 stood at 48 nM.

Take `CCS(=O)(=O)c1ccc(CNC(=O)c2sc3nnc(C)c(C)c3c2N)cc1` [Example B49]: the Emax at 30 µM worked out at 64%. Moreover, under setting [1], the EC50 is 48 nM.

`Nc1c(C(=O)NCc2ccc3c(c2)OCO3)sc2nnc3c(c12)CCCC3` [Example B50]: the Emax at 30 µM was 49%. For the same compound, the concentration giving a half-maximal response (EC50) under setting [1] was 61 nM.

`Nc1c(C(=O)NCc2ccccc2)sc2nnc3c(c12)CCCC3` [Example B51]: the Emax at 30 µM turned out to be 51%. Besides, the EC50 under setting [1] is 130 nM.

As for `COc1ccc(CNC(=O)c2sc3nnc4c(c3c2N)CCCC4)cc1` [Example B52], the Emax at 30 µM came to 54%. Under setting [1], the EC50 was 77 nM.

Consider `Nc1c(C(=O)NCc2ccc3c(c2)OC(F)(F)O3)sc2nnc3c(c12)CCCC3` [Example B53], for which the Emax at 30 µM came out at 42%. For the same compound, the EC50 under setting [1] is 170 nM.

For the compound `Nc1c(C(=O)NCC2CC2)sc2nnc3c(c12)CCCC3` [Example B54], the Emax at 30 µM was 37%. Moreover, the EC50 under setting [1] was 790 nM.

On to `COc1ccc(C2CC2NC(=O)c2sc3nnc4c(c3c2N)CCCC4)cc1` (centres unmarked) [Example B55], for which the Emax at 30 µM is 48%. In addition, the EC50 under setting [1] was 47 nM.

As to `Nc1c(C(=O)NCc2ccc3c(c2)OCCO3)sc2nnc3c(c12)CCCC3` [Example B56], the Emax at 30 µM was 54%. Moreover, the EC50 under setting [1] was 72 nM.

Turning to `Nc1c(C(=O)NCc2cccc(F)c2F)sc2nnc3c(c12)CCCC3` [Example B57], the Emax at 30 µM is 47%. Further, the EC50 under setting [1] was 100 nM.

As for `CS(=O)(=O)c1ccc(CNC(=O)c2sc3nnc4c(c3c2N)CCCC4)cc1` [Example B58], the Emax at 30 µM is 64%. For the same compound, the EC50 under setting [1] was 240 nM.

For `Cc1nnc2sc(C(=O)N3CC(NCc4ccc(F)cc4)C3)c(N)c2c1C` [Example B59], the Emax at 30 µM was 56%. Also, the EC50 under setting [1] is 4100 nM.

For `Cc1nnc2sc(C(=O)N3CC(NCc4ccncc4)C3)c(N)c2c1C` [Example B60], the Emax at 30 µM is 41%. Under setting [1], the EC50 was greater than 10000 nM.

Take `COc1ccc(CNC2CN(C(=O)c3sc4nnc(C)c(C)c4c3N)C2)cc1` [Example B61]: the Emax at 30 µM was 55%. Moreover, under setting [1], the EC50 was 4600 nM.

As to `Cc1nnc2sc(C(=O)N3CC(NCc4cccnc4)C3)c(N)c2c1C` [Example B62], the Emax at 30 µM was 34%. The EC50 under setting [1] is greater than 10000 nM.

Consider `Cc1nnc2sc(C(=O)N3CC(NCCC(C)C)C3)c(N)c2c1C` [Example B63], for which the Emax at 30 µM was determined as 41%. Further, the EC50 under setting [1] is greater than 10000 nM.

Take `Cc1nnc2sc(C(=O)N3CC(NCc4ccco4)C3)c(N)c2c1C` [Example B64]: the Emax at 30 µM amounted to 41%. Moreover, under setting [1], the EC50 is greater than 10000 nM.

For `Cc1nnc2sc(C(=O)N3CC(NCc4ccccc4)C3)c(N)c2c1C` [Example B65], the Emax at 30 µM was found to be 56%. In addition, the EC50 under setting [1] is 3600 nM.

With `Cc1nnc2sc(C(=O)NCc3ccc(S(=O)(=O)C(F)(F)F)cc3)c(N)c2c1C` [Example B66], the Emax at 30 µM is 62%.

With `Cc1nnc2sc(C(=O)Nc3ccc4cn[nH]c4c3)c(N)c2c1C` [Example B67], the Emax at 30 µM came out at 51%. Besides, the EC50 under setting [1] is 350 nM.

Turning to `Cc1nnc2sc(C(=O)NC(C)(C)C)c(N)c2c1C` [Example B68], the maximum response (Emax) at 30 µM stood at 68%. For the same compound, the EC50 under setting [1] is 2600 nM.

For the compound `Cc1nnc2sc(C(=O)N3CC[C@H](F)C3)c(N)c2c1C` [Example B69], the Emax at 30 µM was 48%. For the same compound, under setting [1], the EC50 was greater than 10000 nM.

With `Cc1nnc2sc(C(=O)Nc3nccs3)c(N)c2c1C` [Example B70], the Emax at 30 µM amounted to 37%. Besides, the EC50 under setting [1] is 1200 nM.

For `Cc1cncc(NC(=O)c2sc3nnc(C)c(C)c3c2N)c1` [Example B71], the Emax at 30 µM amounted to 31%. Further, under setting [1], the EC50 is 460 nM.

Turning to `COc1cncc(NC(=O)c2sc3nnc(C)c(C)c3c2N)c1` [Example B72], the Emax at 30 µM amounted to 30%. The EC50 under setting [1] was 380 nM.

Consider `COc1ccc(C(C)CNC(=O)c2sc3nnc(C)c(C)c3c2N)cc1` (centres unmarked) [Example B73], for which the Emax at 30 µM worked out at 40%. The EC50 under setting [1] was 350 nM.

With `Cc1nnc2sc(C(=O)NCc3ccc(CS(C)(=O)=O)cc3)c(N)c2c1C` [Example B74], the Emax at 30 µM was 69%. Under setting [1], the EC50 was 170 nM.

Values taken from US9868746B2, “Substituted 5-aminothieno[2,3-C]pyridazine-6-carboxamide analogs as positive allosteric modulators of the muscarinic acetylcholine receptor M4” (Vanderbilt University, priority 2012, dated 2018).
